Assay [1] concerns L6-myotubes. The experiment in a line: Glucose uptake in differentiated L6-myotubes (Biological Example 2). Type of assay: cell-based. As to conditions: glucose uptake in differentiated L6-myotubes; compound at 10 μM, activity relative to isoproterenol at 10 μM; read-out: Biological example 2 (GU). In outline:
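Uptake was quantified as radioactivity in 0.2 M NaOH lysates after a 10 min pulse of 50 nM ^3H-2-deoxyglucose. The pulse followed two agonist exposures at 1×10^−5 M final (isoprenaline or test compound): 1 h 40 min, then 20 min in glucose-free medium after washing. L6 myotubes had been starved overnight in medium with 0.5% fatty-acid-free BSA.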

In assay [2] the test system is L6-myotubes. The experiment in a line: Measurement of intracellular cAMP levels in differentiated L6-myotubes (Biological Example 3). Type of assay: cell-based. As to conditions: 0.25 h, intracellular cAMP in differentiated L6-myotubes; compound at 10 μM, activity relative to isoproterenol at 10 μM. The gist of the method:
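Intracellular cAMP quantified by AlphaScreen after ethanol extraction and lysis of L6 myotubes. Cells were serum-starved overnight, then exposed for 15 min to compound (final 1×10^−5 M) or isoprenaline in IBMX-containing (1 mM) HBSS buffer, pH 7.4.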

Regarding `COc1ccc(C[C@@]2(C)CC[C@H]([C@H](O)c3cccc(F)c3)N2)cc1` [Compound 366, (R)-{(2R,5R)-5-[(p-methoxyphenyl)methyl]-5-methyl-2-pyrrolidinyl}(m-fluorophenyl)methanol], the Emax at 10 µM is over 75% with L6-myotubes [1] and 25 to 50% in the assay on L6-myotubes [2].

Take `COC(=O)[C@H]1CC[C@H](C(C)(C)NC[C@H](O)c2cccc(F)c2)CC1` [Compound 367, (1R,4r)-8-[(R)-2-(m-fluorophenyl)-2-hydroxyethylamino]-7-methoxy-p-menthan-7-one]: the Emax at 10 µM is over 75% in the assay with L6-myotubes [1] and 25 to 50% in the assay on L6-myotubes [2].

For the compound `CC(C)(NC[C@H](O)c1cccc(F)c1)[C@H]1CC[C@H](C(=O)O)CC1` [Compound 368, (1R,4r)-8-[(R)-2-(m-fluorophenyl)-2-hydroxyethylamino]-7-hydroxy-p-menthan-7-one], the Emax at 10 µM in the assay on L6-myotubes [1] was 25 to 50%; in the assay on L6-myotubes [2], under 25%.

`CC(C)(NC[C@H](O)c1cccc(F)c1)[C@H]1CC[C@@H](C(=O)O)CC1` [Compound 369]: the Emax at 10 µM with L6-myotubes [1] was 50 to 75%; in the assay with L6-myotubes [2] it was under 25%.

For the compound `COC(=O)[C@H]1CC[C@H](C(C)(C)NC[C@H](O)c2cncc(F)c2)CC1` [Compound 370, (1R,4r)-8-[(R)-2-(5-fluoro-3-pyridyl)-2-hydroxyethylamino]-7-methoxy-p-menthan-7-one], the Emax at 10 µM is over 75% with L6-myotubes [1] and under 25% in the assay with L6-myotubes [2].

For the compound `CC(C)(C[C@H]1CC[C@H](N)CC1)NC[C@H](O)c1cccc(F)c1` [Compound 371], the values for the Emax at 10 µM in the assay on L6-myotubes [1] and with L6-myotubes [2] were over 75% and under 25%, respectively.

For `COc1ccc(C[C@@H]2CC[C@H]([C@@H](O)c3cccc(F)c3)N2)cc1` [Compound 372, (S)-{(2R,5S)-5-[(p-methoxyphenyl)methyl]-2-pyrrolidinyl}(m-fluorophenyl)methanol], the Emax at 10 µM in the assay on L6-myotubes [1] is over 75%; in the assay with L6-myotubes [2], under 25%.

Turning to `COc1ccc(C[C@@H]2CC[C@H]([C@H](O)c3cccc(F)c3)N2)cc1` [Compound 373, (R)-{(2R,5S)-5-[(p-methoxyphenyl)methyl]-2-pyrrolidinyl}(m-fluorophenyl)methanol], the Emax at 10 µM with L6-myotubes [1] is over 75%; in the assay on L6-myotubes [2] it was 25 to 50%.

As for `COc1ccc(C[C@H]2CC[C@H]([C@H](O)c3cccc(F)c3)N2)cc1` [Compound 374, (R)-{(2R,5R)-5-[(p-methoxyphenyl)methyl]-2-pyrrolidinyl}(m-fluorophenyl)methanol], the Emax at 10 µM in the assay on L6-myotubes [1] is over 75%; in the assay with L6-myotubes [2], under 25%.

Take `COc1ccc(C[C@H]2CC[C@H]([C@@H](O)c3cccc(F)c3)N2)cc1` [Compound 375, (S)-{(2R,5R)-5-[(p-methoxyphenyl)methyl]-2-pyrrolidinyl}(m-fluorophenyl)methanol]: the Emax at 10 µM is over 75% with L6-myotubes [1] and under 25% with L6-myotubes [2].

With `Cc1ncccc1[C@@H](O)CNC(C)(C)C` [Compound 376, (R)-2-(tert-butylamino)-1-(2-methyl-3-pyridyl)-1-ethanol], the Emax at 10 µM in the assay on L6-myotubes [1] was over 75%; in the assay with L6-myotubes [2], 25 to 50%.

As for `COc1ccc(C[C@@H]2CC[C@H]([C@@H](O)c3cncc(F)c3)N2)cc1` [Compound 377, (S)-{(2R,5S)-5-[(p-methoxyphenyl)methyl]-2-pyrrolidinyl}(5-fluoro-3-pyridyl)methanol], the Emax at 10 µM in the assay with L6-myotubes [1] is over 75%; with L6-myotubes [2] it was under 25%.

In the case of `COc1ccc(C[C@@H]2CC[C@H]([C@H](O)c3cncc(F)c3)N2)cc1` [Compound 378, (R)-{(2R,5S)-5-[(p-methoxyphenyl)methyl]-2-pyrrolidinyl}(5-fluoro-3-pyridyl)methanol], the Emax at 10 µM was over 75% with L6-myotubes [1] and under 25% in the assay on L6-myotubes [2].

For the compound `COc1ccc(C[C@H]2CC[C@H]([C@H](O)c3cncc(F)c3)N2)cc1` [Compound 379, (R)-{(2R,5R)-5-[(p-methoxyphenyl)methyl]-2-pyrrolidinyl}(5-fluoro-3-pyridyl)methanol], the Emax at 10 µM with L6-myotubes [1] was over 75%; with L6-myotubes [2], under 25%.

With `COc1ccc(C[C@H]2CC[C@H]([C@@H](O)c3cncc(F)c3)N2)cc1` [Compound 380, (S)-{(2R,5R)-5-[(p-methoxyphenyl)methyl]-2-pyrrolidinyl}(5-fluoro-3-pyridyl)methanol], the figures for the Emax at 10 µM in the assay with L6-myotubes [1] and in the assay on L6-myotubes [2] were over 75% and under 25%, respectively.

Regarding `CC(C)(NC[C@H](O)c1cccc(F)c1)[C@H]1CC[C@H](N)CC1` [Compound 381], the Emax at 10 µM with L6-myotubes [1] was 50 to 75%; with L6-myotubes [2], under 25%.

In the case of `CC(C)(C[C@H]1CC[C@H](NS(C)(=O)=O)CC1)NC[C@H](O)c1cccc(F)c1` [Compound 382], the results for the Emax at 10 µM in the assay on L6-myotubes [1] and in the assay with L6-myotubes [2] were over 75% and 25 to 50%, respectively.

In the case of `CC(=O)N[C@H]1CC[C@H](CC(C)(C)NC[C@H](O)c2cccc(F)c2)CC1` [Compound 383], the Emax at 10 µM in the assay with L6-myotubes [1] is over 75%; with L6-myotubes [2], 25 to 50%.

Take `CC(C)(C[C@H]1CC[C@H](NC(=O)c2ccccc2)CC1)NC[C@H](O)c1cccc(F)c1` [Compound 384]: the Emax at 10 µM in the assay on L6-myotubes [1] and with L6-myotubes [2] was over 75% in each case.

Take `CC(C)(NC[C@H](O)c1cccc(F)c1)[C@H]1CC[C@H](NS(C)(=O)=O)CC1` [Compound 385, (R)-1-(m-fluorophenyl)-2-{1-methyl-1-[(1r,4R)-4-(mesylamino)cyclohexyl]ethylamino}-1-ethanol]: the Emax at 10 µM was 50 to 75% in the assay on L6-myotubes [1] and under 25% in the assay on L6-myotubes [2].

Regarding `CC(=O)N[C@H]1CC[C@H](C(C)(C)NC[C@H](O)c2cccc(F)c2)CC1` [Compound 386, N-[(1R,4r)-4-{1-[(R)-2-(m-fluorophenyl)-2-hydroxyethylamino]-1-methylethyl}cyclohexyl] acetamide], the Emax at 10 µM is over 75% in the assay on L6-myotubes [1] and under 25% in the assay with L6-myotubes [2].

Regarding `CC(C)(C)NC[C@H](O)c1cccc(C#N)n1` [Compound 387, 6-[(S)-2-(tert-butylamino)-1-hydroxyethyl]-2-pyridinecarbonitrile], the values for the Emax at 10 µM with L6-myotubes [1] and in the assay with L6-myotubes [2] were over 75% and 25 to 50%, respectively.

In the case of `CC(C)(NC[C@H](O)c1cncc(F)c1)[C@H]1CC[C@H](C(=O)O)CC1` [Compound 390, (1R,4r)-8-[(R)-2-(5-fluoro-3-pyridyl)-2-hydroxyethylamino]-7-hydroxy-p-menthan-7-one], the results for the Emax at 10 µM in the assay with L6-myotubes [1] and in the assay with L6-myotubes [2] were 50 to 75% and under 25%, respectively.

With `O[C@@H](c1cccc(F)c1)[C@H]1CC[C@@H](Cc2ccc(Cl)cc2)N1` [Compound 391, (S)-{(2R,5S)-5-[(p-chlorophenyl)methyl]-2-pyrrolidinyl}(m-fluorophenyl)methanol], the Emax at 10 µM was 50 to 75% in the assay on L6-myotubes [1] and under 25% in the assay with L6-myotubes [2].

Take `O[C@H](c1cccc(F)c1)[C@H]1CC[C@@H](Cc2ccc(Cl)cc2)N1` [Compound 392, (R)-{(2R,5S)-5-[(p-chlorophenyl)methyl]-2-pyrrolidinyl}(m-fluorophenyl)methanol]: the Emax at 10 µM in the assay on L6-myotubes [1] was over 75%; in the assay on L6-myotubes [2], under 25%.

Regarding `O[C@H](c1cccc(F)c1)[C@H]1CC[C@H](Cc2ccc(Cl)cc2)N1` [Compound 393, (R)-{(2R,5R)-5-[(p-chlorophenyl)methyl]-2-pyrrolidinyl}(m-fluorophenyl)methanol], the Emax at 10 µM was over 75% in the assay on L6-myotubes [1] and under 25% in the assay with L6-myotubes [2].

Consider `O[C@@H](c1cccc(F)c1)[C@H]1CC[C@H](Cc2ccc(Cl)cc2)N1` [Compound 394, (S)-{(2R,5R)-5-[(p-chlorophenyl)methyl]-2-pyrrolidinyl}(m-fluorophenyl)methanol], for which the figures for the Emax at 10 µM with L6-myotubes [1] and in the assay with L6-myotubes [2] were 50 to 75% and under 25%, respectively.

As for `O[C@@H](c1cccc(F)c1)C12CCC(COCc3ccc(Cl)cc3)(CC1)N2` [Compound 395, (S)-(4-{[(p-chlorophenyl)methoxy]methyl}-7-azabicyclo[[2.2.1]]hept-1-yl)(m-fluorophenyl)methanol], the results for the Emax at 10 µM in the assay on L6-myotubes [1] and with L6-myotubes [2] were 50 to 75% and under 25%, respectively.

`O[C@H](c1cccc(F)c1)C12CCC(COCc3ccc(Cl)cc3)(CC1)N2` [Compound 396, (R)-(4-{[(p-chlorophenyl)methoxy]methyl}-7-azabicyclo[[2.2.1]]hept-1-yl)(m-fluorophenyl)methanol]: the Emax at 10 µM with L6-myotubes [1] is over 75%; in the assay with L6-myotubes [2], under 25%.

With `CC(C)(C)NC[C@H](O)c1cccc(C(F)(F)F)n1` [Compound 397, (S)-2-(tert-butylamino)-1-[6-(trifluoromethyl)-2-pyridyl]-1-ethanol], the Emax at 10 µM in the assay on L6-myotubes [1] is over 75%; with L6-myotubes [2], under 25%.

Turning to `CCOC(=O)CO[C@H]1CC[C@H](C(C)(C)NC[C@H](O)c2cccc(F)c2)CC1` [Compound 398, ethyl[[(1R,4r)-4-{1-[(R)-2-(m-fluorophenyl)-2-hydroxyethylamino]-1-methylethyl}cyclohexyloxy]]acetate], the figures for the Emax at 10 µM in the assay on L6-myotubes [1] and with L6-myotubes [2] were over 75% and under 25%, respectively.

On to `CC(C)(C[C@H]1CC[C@@H](C#N)CC1)NC[C@H](O)c1cccc(F)c1` [Compound 399, (1S,4s)-4-{2-[(R)-2-(m-fluorophenyl)-2-hydroxyethylamino]-2-methylpropyl} cyclohexanecarbonitrile], for which the Emax at 10 µM in the assay on L6-myotubes [1] is over 75%; in the assay with L6-myotubes [2], 25 to 50%.

With `COc1ccc(CC23CCC([C@@H](O)c4cccc(F)c4)(CC2)N3)cc1` [Compound 400, (S)-(m-fluorophenyl){4-[(p-methoxyphenyl)methyl]-7-azabicyclo[[2.2.1]]hept-1-yl}methanol], the Emax at 10 µM with L6-myotubes [1] is 50 to 75%; in the assay on L6-myotubes [2], under 25%.
